# Experiments:
# [1] = tested on: freshly isolated murine distal total epithelial cells; experiment: 3D organoid culture of freshly isolated murine distal total epithelial cells; assay type: cell-based
# Excerpt: (§1) FIG. 1. Experimental design. Preconditioning of donor cells, including addition of small molecules such as ROCK inhibitor, pifithrin α, or combined together, and generation of organoids.
# FIG. 3. […] Addition of the TGF-β inhibitor, SB 431542 to the culture medium increases the % colony forming efficiency of freshly isolated murine lung epithelial cells. Addition of Pifithrin α causes an increase in organoids size, while addition of ROCKi causes an increase in the colony forming efficiency.
# FIG. 13. Effect of p53 and ROCKi inhibition on murine freshly isolated distal total epithelial cells in (+SB431542). Addition of both ROCKi and Pifithrin alpha (in presence of SB431542) increases the colony forming efficiency of freshly isolated murine distal total epithelial cells (isolated from the lung without trachea). […] Pifithrin alpha also causes an increase in the size of the organoids (C). […] The drop in mean diameter of the Pifithrin alpha+ROCKi group is likely due to space constraints because of the large number of organoids per well.
# Further described herein is a cell culture including a quantity of human stem cells, or stem cell derived cells in a cell culture media including at least one molecule including: a RHO-kinase (ROCK) inhibitor, SMAD inhibitor, and p53 inhibitor. In other embodiments, the RHO-kinase inhibitor is Y27632 and the p53 inhibitor is Pifithrin α. In other embodiments, the stem cells are adult stem cells. In other embodiments, the stem cell derived cells are lung epithelial cells. In various embodiments, the aforementioned inhibitors are at a concentration of 0.1-1 uM, 1-5 uM, 5-10 uM, 10-25 uM, 25-50 uM, or 50 uM or more. In various embodiments, the p53 inhibitor is Pifithrin-alpha. For example, this includes a media formulated as follows: 5 mL FBS, 500 uL ITS (100×), 50 uL Fungizone, 500 uL Pen/Strep (100×), DMEM/F12 up to 50 mL, 5 uL SB431542, Pifithrin-alpha 10 uM, ROCKi (Y-27632 dihydrochloride)—10 uM. Also described herein is a quantity of organoids including cells made by the aforementioned methods. In various embodiments, the organoids include proximal and/or distal cells. In various embodiments, the distal cells are alveolar type II progenitors and/or Scgb1a1 positive club progenitor cells.
# [2] = tested on: murine pre-cultured distal total epithelial cells; experiment: 3D organoid culture of murine distal total epithelial cells pre-cultured 24 hrs on collagen coated plates; assay type: cell-based; conditions: pre-cultured on collagen coated plates for 24 hrs after isolation, +SB431542
# Excerpt: FIG. 4. Effect of pre-culturing—Day 3. Pre-culturing cells on collagen coated plates for 24 hrs after initial isolation increases the rate of organoid formation, with organoids being visible as early as day 3 in culture.
# FIG. 5. Effect of pre-culturing—Day 8. Addition of Pifithrin α causes an increase in organoids size, while addition of ROCKi causes an increase in the colony forming efficiency. This effect is more pronounced when cells are pre-cultured for 24 hrs on collagen coated plates after initial isolation.
# FIG. 14. Effect of inhibitors on murine pre-cultured distal total epithelial cells in (+SB431542). Addition Pifithrin alpha increases organoid size while addition of ROCKi increases the colony forming efficiency when murine distal total epithelial cells (isolated from the lung without trachea) are pre-cultured on collagen coated plates for 24 hrs prior after initial isolation. The effect on size is more pronounced when cells are precultured for 24 hrs on collagen coated plates after initial isolation. The drop in CFE in the Pifithrin alpha+ROCKi group is likely due space and nutrient availability constraints due to the large number of organoids per well.
# (§2) ROCKi increases the colony forming efficiency when murine distal total epithelial cells (isolated from the lung without trachea) are pre-cultured on collagen coated plates for 24 hrs prior after initial isolation. The effect on size is more pronounced when cells are precultured for 24 hrs on collagen coated plates after initial isolation. The drop in CFE in the Pifithrin alpha+ROCKi group is likely due space and nutrient availability constraints due to the large number of organoids per well. Addition of both ROCKi and Pifithrin alpha (in presence of SB431542) increases the colony forming efficiency of freshly isolated alveolar type II cells (regional stem cells which maintain the epithelium of the air sacs in the lung). The effect is synergistic for their combined use, similar to that seen for total distal epithelial cells in the previous figures.
# [3] = tested on: freshly isolated alveolar type II cells; experiment: Organoid culture of lineage labelled murine alveolar type II cells; assay type: cell-based; conditions: GFP+ alveolar type II cells, in presence of SB431542
# Excerpt: FIG. 15. Effect of ROCK and P53 inhibition on lineage labelled murine alveolar type II cells. GFP^+ alveolar type II cells were isolated from tamoxifen treated SPC-CreER/ROSARG mice. Addition of both ROCKi and Pifithrin alpha (in presence of SB431542) increases the colony forming efficiency of freshly isolated alveolar typeII cells (regional stem cells which maintain the epithelium of the air sacs in the lung). The effect is synergistic for their combined use, similar to that seen for total distal epithelial cells in the previous figures.
# as §2
# [4] = tested on: freshly isolated club cells; experiment: Organoid culture of lineage labelled murine club cells; assay type: cell-based; conditions: GFP+ club cells, in presence of SB431542
# Excerpt: FIG. 17. Effect of ROCK and P53 inhibition on lineage labelled murine club cells. GFP^+ club cells were isolated from tamoxifen treated Scgb1a1-CreER/ROSARG mice. Addition of ROCKi (in presence of SB431542) increases the colony forming efficiency of freshly isolated club cells (regional stem cells which maintain certain cell types in the bronchiolar epithelium) whereas addition of Pifithrin alpha (in presence of SB431542) increases the size of Scgb1a1-derived organoids.
# (§3) Distal progenitor cells were cultured as 3D organoids for 14 days in presence of Pifithrin-alpha, ROCKi and SB431542 followed by culture for 7 days in media without all three inhibitors. […] Addition of ROCKi (in presence of SB431542) increases the colony forming efficiency of freshly isolated club cells (regional stem cells which maintain certain cell types in the bronchiolar epithelium) whereas addition of Pifithrin alpha (in presence of SB431542) increases the size of Scgb1a1-derived organoids. Addition of both ROCKi (in presence of SB431542) increases the colony forming efficiency of freshly isolated murine proximal total epithelial cells (isolated from the murine trachea).
# [5] = tested on: freshly isolated murine proximal total epithelial cells; experiment: Organoid culture of murine tracheal progenitor (basal) cells; assay type: cell-based
# Procedure: FIG. 18. Effect of ROCK and P53 inhibition on murine tracheal progenitor (basal) cells. Addition of both ROCKi (in presence of SB431542) increases the colony forming efficiency of freshly isolated murine proximal total epithelial cells (isolated from the murine trachea).
# as §3
# freshly isolated cells = experiment: Freshly isolated cells cultured with small molecules at different time points (proliferation); assay type: cell-based; conditions: different time points (FIG. 2)
# Excerpt: as §1
# FIG. 2. Freshly isolated cells cultured with small molecules at different time points.
# p53 = molecular target: T1, p53 (Homo sapiens, UniProt P04637); conditions: cited from earlier work
# T1 construct: host or cells: neuronal cells (not further described)
# [6] = freshly isolated cells, in presence of SB431542 (FIG. 13)
# T1 sequence (P04637 whole entry, species assumed): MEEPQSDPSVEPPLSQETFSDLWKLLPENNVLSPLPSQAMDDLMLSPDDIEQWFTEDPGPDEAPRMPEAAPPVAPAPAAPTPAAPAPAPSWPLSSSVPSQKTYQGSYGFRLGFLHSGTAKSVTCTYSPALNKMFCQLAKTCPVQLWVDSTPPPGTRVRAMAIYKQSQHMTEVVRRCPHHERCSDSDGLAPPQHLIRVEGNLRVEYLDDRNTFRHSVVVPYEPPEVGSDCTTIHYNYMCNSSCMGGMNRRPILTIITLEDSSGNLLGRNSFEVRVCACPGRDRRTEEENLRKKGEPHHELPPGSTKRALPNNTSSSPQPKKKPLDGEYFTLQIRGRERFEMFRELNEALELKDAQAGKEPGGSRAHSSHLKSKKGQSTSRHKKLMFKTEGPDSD
smiles,measurement,setting,value
Cc1ccc(C(=O)Cn2c3c(sc2=N)CCCC3)cc1 [Pifithrin α],colony forming efficiency,[1]; [6],increases
same,size of the organoids (mean diameter),[1]; [6],increase
same,survival and proliferation of the stem cells (inferred from CFE and organoid size),"[1]; freshly isolated distal cells, FIG. 13",increase survival and proliferation
same,organoids size,[1]; freshly isolated murine lung epithelial cells (FIG. 3),increase
same,organoid size,[2],increase
same,organoid size,[2]; listed as Pifithrin alpha,increases
same,colony forming efficiency,[3],increases
same,size of the alveolar organoids,[3],does not increase
same,size of Scgb1a1-derived organoids,[4],increases
same,colony forming efficiency,"[5]; cells isolated from the murine trachea, in presence of SB431542",does not show a significant effect
same,survival of proximal and distal progenitors (inferred from colony forming ability),[5]; comparison of proximal and distal progenitor cell types,specific to distal stem cells
same,proliferation of cells,freshly isolated cells,have an effect on proliferation
same,protection against p53-induced neuronal cell death,p53,protection
